Test: Measurement of pKa by titration with NaOH solution in water/acetone
Format: physicochemical
Settings: for Measured pKa Exp. Ex. 2: monomer, titration with NaOH solution in water/acetone, room temperature
Method: In a solution of water/acetone of 10/15 ml was put 0.7865 g of CH2═CHCH2C(CF3)2OH, followed by stirring at room temperature. After it was confirmed that the solution became homogeneous, titration was carried out with a 0.2 mol/liter NaOH solution. A titration curve was obtained by adding a NaOH solution dropwise in increments of 0.15 ml and recording a pH value at every addition. An equivalence point was determined by an inflection point (maximum differential value of titration curve=dpH/dml) of the titration curve. In this case, the equivalence point was 14.5 ml. […] From a titration curve of water/acetone solution and aqueous solution which had been measured previously as a blank solution, a difference in a pH value derived from an electric potential difference between the solutions at titration of 7.25 ml was 1.29.
In case of titration of 1.0865 g of CH2═CHCH2C(CF3)2OH by the same procedures as above, an equivalence point was 20.15 ml and a half of equivalence point was 10.08 ml. A pH value at a half of the equivalence point was 10.78.
When the same procedures as above were carried out except that about 0.05 mol/liter NaOH solution was used as a titration solution, an equivalence point of 0.115 g of CH2═CHCH2C(CF3)2OH was 8.00 ml and a half of equivalence point was 4.00 ml. A pH value at this time was 10.92.
From those experiments carried out three times, a pKa value of CH2═CHCH2C(CF3)2OH was determined as 9.6.
With respect to the various fluorine-containing ethylenic monomers having OH group shown in Table 1, a pKa value was measured by the same procedures as above.

| Compound | pKa | Measured pKa Exp. Ex. 2 | pKa value (single titration) (0.115 g, about 0.05 mol/liter NaOH) | pKa value (single titration) (0.7865 g, 0.2 mol/liter NaOH, water/acetone 10/15 ml) | pKa value (single titration) (1.0865 g, 0.2 mol/liter NaOH) |
| --- | --- | --- | --- | --- | --- |
| C=C(F)C(O)(C(F)(F)F)C(F)(F)F [Ex. 4, 1,1-bistrifluoromethyl-2-fluoro-2-propene-1-ol] | 8 | – | – | – | – |
| OC(C(F)=C(F)F)(C(F)(F)F)C(F)(F)F [Prep. Ex. 1, 1,1-bistrifluoromethyl-2,3,3-trifluoro-2-propene-1-ol] | 7.1 | – | – | – | – |
| C=C(F)C(F)(F)OC(F)(C(F)(F)F)C(F)(F)OC(F)(CO)C(F)(F)F (stereo not shown) [perfluoro-(1,1,1,9,9-tetrahydro-2,5-bistrifluoromethyl-3,6-dioxanonenol)] | – | 12.6 | – | – | – |
| CH2═CHCH2C(CF3)2OH | – | 9.6 | 9.54 | 9.69 | 9.64 |

Source: US7214470B2, “Fluorine-containing ethylenic monomer having hydroxyl group or fluoroalkyl carbonyl group and fluorine-containing polymer prepared by polymerization of same” (priority 2001, dated 2007)
